In publication PMC9516332 (Frontiers in Oncology, 2022):
Like-named read-outs stand apart in the source and are kept apart here.

Test system: 134 cancer cell lines
Assay: Cell viability assay (ATPlite, 72 hours), IC50 on cancer cell line panel

**Q.** With CC(=O)Nc1cccc(-n2c(=O)n(C3CC3)c(=O)c3c(Nc4ccc(I)cc4F)n(C)c(=O)c(C)c32)c1 [trametinib] as the compound, how does the IC50 (Homo sapiens, MOLT-4, read-out: IC50 in cell proliferation assay, MOLT-4 cell line) read?
**A.** 27.6 µM

**Q.** And the IC50 (Homo sapiens, MV4-11, read-out: IC50 in cell proliferation assay, MV4-11 cell line (FLT3 ITD))?
**A.** 0.022 µM

**Q.** What about the IC50 (Homo sapiens, MeWo, read-out: IC50 in cell proliferation assay, MeWo cell line) of the same compound?
**A.** 0.036 µM

**Q.** And the IC50 (Homo sapiens, NCCIT, read-out: IC50 in cell proliferation assay, NCC-IT cell line)?
**A.** 0.871 µM

**Q.** And the IC50 (Homo sapiens, NCI-H82, read-out: IC50 in cell proliferation assay, cell line NCI-H82)?
**A.** > 28.2 µM

**Q.** What about the IC50 (Homo sapiens, NCI-H460, read-out: IC50 in cell proliferation assay, NCI-H460 cell line) of the same compound?
**A.** 0.033 µM

**Q.** What about the IC50 (Homo sapiens, NCI-H661, read-out: IC50 in cell proliferation assay, NCI-H661 cell line) of the same compound?
**A.** > 28.2 µM

**Q.** What about the IC50 (Homo sapiens, NCI-H716, read-out: IC50 in cell proliferation assay, cell line NCI-H716 (FGFR2-COL14A1)) of the same compound?
**A.** 0.034 µM

**Q.** What about the IC50 (Homo sapiens, NCI-H1650, read-out: IC50 in cell proliferation assay, NCI-H1650 cell line (EGFR exon19del)) of the same compound?
**A.** 0.075 µM

**Q.** And the IC50 (Homo sapiens, NCI-H1975, read-out: IC50 in cell proliferation assay, NCI-H1975 cell line (EGFR p.L858R + p.T790M))?
**A.** 0.085 µM

**Q.** What about the IC50 (Homo sapiens, NCI-H2228, read-out: IC50 in cell proliferation assay, NCI-H2228 cell line (EML4-ALK)) of the same compound?
**A.** 0.265 µM

**Q.** And the IC50 (Homo sapiens, OVCAR-3, read-out: IC50 in cell proliferation assay, cell line OVCAR-3)?
**A.** > 28.2 µM

**Q.** And the IC50 (Homo sapiens, PFSK-1, read-out: IC50 in cell proliferation assay, cell line PFSK-1)?
**A.** > 28.2 µM

**Q.** What about the IC50 (Homo sapiens, RL95-2, read-out: IC50 in cell proliferation assay, cell line RL95-2 (EGFR p.A289V)) of the same compound?
**A.** 0.00155 µM

**Q.** And the IC50 (Homo sapiens, RPMI-7951, read-out: IC50 in cell proliferation assay, cell line RPMI-7951 (BRAF p.V600E))?
**A.** 0.017 µM

**Q.** And the IC50 (Homo sapiens, RS4-11, read-out: IC50 in cell proliferation assay, cell line RS4;11)?
**A.** > 28.2 µM

**Q.** And the IC50 (Homo sapiens, Rec1, read-out: IC50 in cell proliferation assay, cell line REC-1)?
**A.** 12.3 µM

**Q.** What about the IC50 (Homo sapiens, SHP77, read-out: IC50 in cell proliferation assay, cell line SHP-77) of the same compound?
**A.** > 28.2 µM

**Q.** And the IC50 (Homo sapiens, SK-BR-3, read-out: IC50 in cell proliferation assay, cell line SK-BR-3 (ERBB2 amplification))?
**A.** > 31.6 µM

**Q.** What about the IC50 (Homo sapiens, SK-N-AS, read-out: IC50 in cell proliferation assay, cell line SK-N-AS) of the same compound?
**A.** 0.004 µM

**Q.** And the IC50 (Homo sapiens, SK-N-FI, read-out: IC50 in cell proliferation assay, cell line SK-N-FI)?
**A.** 0.034 µM

**Q.** And the IC50 (Homo sapiens, SK-N-MC, read-out: IC50 in cell proliferation assay, cell line SK-N-MC)?
**A.** > 31.6 µM

**Q.** What about the IC50 (Homo sapiens, SK-N-SH, read-out: IC50 in cell proliferation assay, cell line SK-N-SH (ALK p.F1174L)) of the same compound?
**A.** 0.017 µM

**Q.** And the IC50 (Homo sapiens, SNU-5, read-out: IC50 in cell proliferation assay, cell line SNU-5 (MET amplification))?
**A.** 0.012 µM

**Q.** And the IC50 (Homo sapiens, SNU-16, read-out: IC50 in cell proliferation assay, cell line SNU-16 (FGFR2 amplification))?
**A.** 0.146 µM

**Q.** What about the IC50 (Homo sapiens, SNU-C2B, read-out: IC50 in cell proliferation assay, cell line SNU-C2B (EGFR p.R165Q)) of the same compound?
**A.** 0.041 µM

**Q.** What about the IC50 (Homo sapiens, SU-DHL-1, read-out: IC50 in cell proliferation assay, cell line SU-DHL-1 (NPM1-ALK)) of the same compound?
**A.** 0.279 µM

**Q.** And the IC50 (Homo sapiens, SU-DHL-6, read-out: IC50 in cell proliferation assay, cell line SU-DHL-6)?
**A.** 0.027 µM

**Q.** What about the IC50 (Homo sapiens, SUP-T1, read-out: IC50 in cell proliferation assay, cell line SUP-T1) of the same compound?
**A.** > 28.2 µM

**Q.** What about the IC50 (Homo sapiens, SW48, read-out: IC50 in cell proliferation assay, cell line SW48 (EGFR p.G719S)) of the same compound?
**A.** 0.006 µM

**Q.** What about the IC50 (Homo sapiens, SW480, read-out: IC50 in cell proliferation assay, cell line SW480) of the same compound?
**A.** 0.23 µM

**Q.** What about the IC50 (Homo sapiens, SW626, read-out: IC50 in cell proliferation assay, cell line SW626) of the same compound?
**A.** 0.059 µM

**Q.** And the IC50 (Homo sapiens, SW780, read-out: IC50 in cell proliferation assay, cell line SW780 (FGFR3-BAIAP2L1))?
**A.** 0.02 µM

**Q.** What about the IC50 (Homo sapiens, SW837, read-out: IC50 in cell proliferation assay, cell line SW837) of the same compound?
**A.** 0.098 µM

**Q.** And the IC50 (Homo sapiens, SW872, read-out: IC50 in cell proliferation assay, cell line SW872 (BRAF p.V600E))?
**A.** 0.023 µM

**Q.** What about the IC50 (Homo sapiens, SW900, read-out: IC50 in cell proliferation assay, cell line SW900) of the same compound?
**A.** 0.111 µM

**Q.** What about the IC50 (Homo sapiens, SW948, read-out: IC50 in cell proliferation assay, cell line SW948) of the same compound?
**A.** 0.026 µM

**Q.** What about the IC50 (Homo sapiens, SW982, read-out: IC50 in cell proliferation assay, cell line SW982 (BRAF p.V600E)) of the same compound?
**A.** 0.929 µM

**Q.** What about the IC50 (Homo sapiens, SW-620, read-out: IC50 in cell proliferation assay, cell line SW620) of the same compound?
**A.** 0.017 µM

**Q.** And the IC50 (Homo sapiens, T98G, read-out: IC50 in cell proliferation assay, cell line T98G)?
**A.** > 28.2 µM

**Q.** And the IC50 (Homo sapiens, TCC-SUP, read-out: IC50 in cell proliferation assay, cell line TCCSUP)?
**A.** 1.45 µM

**Q.** What about the IC50 (Homo sapiens, THP-1, read-out: IC50 in cell proliferation assay, cell line THP-1) of the same compound?
**A.** 0.001 µM

**Q.** What about the IC50 (Homo sapiens, U2OS, read-out: IC50 in cell proliferation assay, cell line U2OS) of the same compound?
**A.** 0.004 µM

**Q.** What about the IC50 (Homo sapiens, U-87 MG, read-out: IC50 in cell proliferation assay, cell line U-87MG ATCC) of the same compound?
**A.** 0.245 µM

**Q.** What about the IC50 (Homo sapiens, U-118-MG, read-out: IC50 in cell proliferation assay, cell line U-118MG) of the same compound?
**A.** 0.151 µM

**Q.** What about the IC50 (Homo sapiens, UMUC3, read-out: IC50 in cell proliferation assay, cell line UM-UC-3) of the same compound?
**A.** 0.021 µM

**Q.** And the IC50 (Hs766T, read-out: IC50 in cell proliferation assay, Hs 766T cell line)?
**A.** 0.00234 µM

**Q.** And the IC50 (L-82, read-out: IC50 in cell proliferation assay, L-82 cell line (NPM1-ALK))?
**A.** 0.086 µM

**Q.** What about the IC50 (Rh30, read-out: IC50 in cell proliferation assay, cell line Rh30) of the same compound?
**A.** 0.237 µM

**Q.** And the IC50 (read-out: IC50 in cell proliferation assay, 11-18 cell line (EGFR p.L858R))?
**A.** > 31.6 µM

**Q.** What about the IC50 (read-out: IC50 in cell proliferation assay, Hs 852.T cell line) of the same compound?
**A.** 0.218 µM

**Q.** What about the IC50 (read-out: IC50 in cell proliferation assay, JAR cell line) of the same compound?
**A.** > 28.2 µM

**Q.** And the IC50 (read-out: IC50 in cell proliferation assay, cell line 5637)?
**A.** 0.297 µM

**Q.** And the IC50 (read-out: IC50 in cell proliferation assay, cell line A-388)?
**A.** 0.099 µM

**Q.** What about the IC50 (read-out: IC50 in cell proliferation assay, cell line DB) of the same compound?
**A.** 18.9 µM

**Q.** And the IC50 (read-out: IC50 in cell proliferation assay, cell line DEL (NPM1-ALK))?
**A.** > 31.6 µM

**Q.** And the IC50 (read-out: IC50 in cell proliferation assay, cell line ES-2 (BRAF p.V600E))?
**A.** 0.007 µM

**Q.** What about the IC50 (read-out: IC50 in cell proliferation assay, cell line PA-1) of the same compound?
**A.** 0.666 µM

**Q.** And the IC50 (read-out: IC50 in cell proliferation assay, cell line PC-3)?
**A.** > 28.2 µM

**Q.** And the IC50 (read-out: IC50 in cell proliferation assay, cell line RD)?
**A.** 0.004 µM

**Q.** What about the IC50 (read-out: IC50 in cell proliferation assay, cell line RKO (BRAF p.V600E)) of the same compound?
**A.** 0.008 µM

**Q.** And the IC50 (read-out: IC50 in cell proliferation assay, cell line RL)?
**A.** > 28.2 µM

**Q.** What about the IC50 (read-out: IC50 in cell proliferation assay, cell line RT-4 (FGFR3-TACC3)) of the same compound?
**A.** 0.072 µM

**Q.** And the IC50 (read-out: IC50 in cell proliferation assay, cell line SR (NPM1-ALK))?
**A.** 0.936 µM

**Q.** What about the IC50 (read-out: IC50 in cell proliferation assay, cell line T24) of the same compound?
**A.** 0.005 µM

**Q.** And the IC50 (read-out: IC50 in cell proliferation assay, cell line TT (RET p.C634W))?
**A.** 1.05 µM

**Q.** What about the IC50 (read-out: IC50 in cell proliferation assay, cell line VA-ES-BJ) of the same compound?
**A.** 0.089 µM
